Results taken from patent US7968556B2, “Heteroaryl compounds, compositions thereof, and methods of treatment therewith” (Signal Pharmaceuticals, LLC, priority 2006, dated 2011).

What was measured:
IKK-2 = target: T1, IKK-2 (Homo sapiens, UniProt O14920, S177E/S181E); assay: IKK-2 screening assay (IKK2EE 33P Assay / IKK2EE NEMO HTRF Assay); type: biochemical
T1 sequence (O14920 1-756 S177E/S181E): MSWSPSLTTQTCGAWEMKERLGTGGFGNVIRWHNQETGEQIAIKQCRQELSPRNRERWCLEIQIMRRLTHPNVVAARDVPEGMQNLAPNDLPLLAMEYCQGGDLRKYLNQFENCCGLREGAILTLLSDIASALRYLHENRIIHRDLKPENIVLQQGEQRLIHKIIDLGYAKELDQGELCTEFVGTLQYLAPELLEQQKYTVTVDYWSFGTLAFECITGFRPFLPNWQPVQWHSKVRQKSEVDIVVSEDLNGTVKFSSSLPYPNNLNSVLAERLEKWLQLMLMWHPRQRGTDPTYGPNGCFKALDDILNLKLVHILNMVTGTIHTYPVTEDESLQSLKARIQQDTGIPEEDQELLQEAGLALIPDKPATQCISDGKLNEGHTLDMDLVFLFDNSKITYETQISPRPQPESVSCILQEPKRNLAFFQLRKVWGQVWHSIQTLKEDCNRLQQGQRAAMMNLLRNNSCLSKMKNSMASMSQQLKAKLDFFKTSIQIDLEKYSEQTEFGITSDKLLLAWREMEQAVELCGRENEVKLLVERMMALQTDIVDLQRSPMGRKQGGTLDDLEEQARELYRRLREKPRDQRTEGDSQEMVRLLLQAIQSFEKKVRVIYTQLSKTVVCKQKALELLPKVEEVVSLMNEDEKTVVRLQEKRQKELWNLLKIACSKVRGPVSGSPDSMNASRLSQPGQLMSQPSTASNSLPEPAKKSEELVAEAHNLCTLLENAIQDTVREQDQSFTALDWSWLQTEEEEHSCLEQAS
Protocol: The following is an example of an assay that can be used to determine the IKK2EE inhibitory activity of a test compound.
A reaction buffer (pH 7.8) is prepared containing HEPES (20 mM), MgCl2 (10 mM), EDTA (0.1 mM), DTT (1 mM) and Triton X-100 (0.004%). IKK2EE (0.75 μg/ml is used. GST-IKBα (50 μg/ml) is used as substrate. Adenosine 5′-triphosphate (1.5 μM with ^33P-ATP 5 nCi/μl) is used. Reactions are stopped with trichloroacetic acid (6.25%).
Appropriate amounts of test compounds or controls in 100% DMSO are added to the assay plate. A peptide-substrate solution (PSS) is prepared by adding peptide stock to an appropriate volume of buffer (peptide concentration in the PSS will be about 100 μg/ml). An enzyme-peptide solution (EPS) is prepared by adding enzyme stock to an appropriate volume of PSS (the enzyme concentration in the EPS will be about 1 μg/ml). An ATP solution is prepared by adding ATP stock to an appropriate volume of buffer (the ATP concentration will be 15 μM).
85 μl of EPS is added to the assay wells (or PSS to positive control wells) of 96 well polypropylene plates. The ATP solution is then completed by adding ^33P-ATP (to a final concentration of 50 μCi/ml).
The reaction is initiated by adding 10 μl ATP solution to each well. Plates are shaken from about 12 seconds and allowed to incubate at room temperature for 1 hours. 100 μl of trichloroacetic acid solution (12.5%) is added to stop the reaction and the plates are incubated at room temperature for at least 10 minutes. The assay plates are harvested onto a Millipore Multiscreen harvest Plate FC using an appropriate harvester and the harvest plates are washed with 1×PBS solution for about 10 seconds (continuous flow). Harvest plates are allowed to dry thoroughly and the bottoms of the plates are sealed. 20-50 μl of Microscint20 is added to each well, tops are sealed and plates are read using an appropriate scintillation counter.
A reaction buffer (pH 7.6) is prepared containing HEPES (20 mM), MgCl2 (10 mM), EDTA (0.05 mM), DTT (1 mM) and Triton X-100 (0.004%). IKK2EE-NEMO (0.7 μg/ml is used. GST-IKBα (0.5 μg/ml) is used as substrate. Adenosine 5′-triphosphate (1.5 μM) is used. Detection reagents used are mouse anti-P-IKBα (30 ng/ml), Eu anti-mouse (300 ng/ml) and Cy5 anti-GST (11.5 μg/ml). Reactions are stopped with EDTA (20 mM).
An enzyme solution (ES) is prepared by adding enzyme stock to an appropriate volume of buffer (enzyme concentration in the ES will be about 1.7 ng/ml). A detection mixture (DM) is prepared by adding ATP (final conc. 3.75 μM), mouse anti-P-IKBα (final conc. 75 ng/ml), GST-IKBα (final conc. 1.26 μg/ml), Eu anti-mouse in buffer (final conc. 750 ng/ml).
5 μl of compound (solvated in 10% DMSO) is added to assay wells (or 10% DMSO to control wells) of low binding reaction plates. […] ES is added to assay wells (or buffer to control wells) and the reaction is initiated by adding 10 μl DM to all wells. Plates are incubated at room temperature for 45 minutes. Stop mixture is prepared by adding EDTA (final conc. 70 mM) and Cy5 anti-GST (final conc. 40 μg/ml) to an appropriate volume of buffer. Stop mixture is added and plates are shaken for 20 seconds and incubated at room temperature for at least 3 hours (preferably in the dark). Plates are read on an Analyst HT using Multi-Method HTRF.

mTOR = mTOR (Homo sapiens, UniProt P42345); assay: mTOR HTR-FRET Assay; type: biochemical
Protocol: The following is an example of an assay that can be used to determine the mTOR inhibitory activity of a test compound. Reagents are prepared as follows:
“Simple TOR buffer” (used to dilute high glycerol TOR fraction): 10 mM Tris pH 7.4, 10 mM NaCl, 0.1% Tween-20, 1 mM DTT (from 1M stock frozen at −20° C. just prior to use). For convenience a large quantity of “Simple TOR buffer” w/o DTT can be stored at 4° C. It can be brought to room temperature and DTT added just prior to dilution of TOR fraction.
5XKB/5XMn/5×ATP solution (used to dilute substrate GST-p70S6kin 81 a.a. just prior to use) (40 ml screen quantity shown):
Enzyme solution: Dilute TOR fraction 1:14 in “Simple TOR Buffer”. For current lot that is 640 μg/ml TOR fraction diluted 14× to yield 45.7 μg/ml TOR in buffer (i.e. 7.85 ml TOR pooled fraction+102.1 ml Simple TOR buffer=110 ml 14× diluted TOR fraction). Each Enzyme Lot must be QC'd prior to assay.
Substrate solution: This may be prepared just prior to assay if preferred. Dilute 5.3 mg/ml GST-p70S6kinase fragment stock to 3.5 μg/ml (97 nM) working stock in 5XKB/5XMn/5×ATP solution (i.e. 26.41 μL (5.3 mg/ml) GST-p70S6+40 ml 5XKB/5XMn/5×ATP=40 ml 3.5 μg/ml (97 nM)).
Assay Buffer (for dilution of Antibodies used in Antibody Detection Reagent):
Antibody Detection Reagent (this reagent should be made just prior to addition to Assay Plates):
Using PlateTrak program (Screen) or Matrix Pipettor (SAR), 19.5 μL of diluted TOR fraction is added to assay plate in all test, reference or positive control wells. 19.5 μL of “Simple TOR buffer” is added to all negative control wells. If treating multiple plates with the same compounds, can increase volume of enzyme to multiples of 19.5 μL in a tall 384 well polypropylene plate.
Using EP3, 0.5 μl of test, reference or control DMSO is added to each well with mixing. Plates are incubated for 30 minutes at room temperature.
Using PlateTrak program (Screen) or Matrix Pipettor (SAR) 5 μL of 5XKB/5XMn/5×ATP/5× substrate solution is added to each well of the assay plate to start the reaction. The solutions are mixed well and incubated for 2 hours at room temperature.
Using PlateTrak program (Screen) or Matrix Pipettor (SAR) 5 μL of 60 mM EDTA is added to stop the reaction. The solutions are mixed well and allowed to sit for 15-20 minutes before the next step.
Using PlateTrak program (Screen) or Matrix Pipettor (SAR) 10 μl of Antibody Detection Reagent is added. The solutions are mixes well and incubated for 5 hours to O/N to allow antibodies to form complexes with phosphorylated substrate.
Plates are read on AnalystHT using protocol Multi-Method protocol.

melting point | IC50 (IKK-2) | IC50 (mTOR) | SMILES
347 to 349 °C | 20.1 to 30 µM |  | NC(=O)c1nc(-c2ccccn2)nc2c1[nH]c(=O)n2-c1ccccc1 [Compound 3, 8-oxo-9-phenyl-2-(pyridin-2-yl)-8,9-dihydro-7H-purine-6-carboxamide]
250 to 252 °C | > 30 µM | > 30 µM | CN(C)C(=O)c1nc(-c2cccnc2)nc2c1[nH]c(=O)n2-c1ccccc1 [Compound 6, N,N-dimethyl-8-oxo-9-phenyl-2-(pyridin-3-yl)-8,9-dihydro-7H-purine-6-carboxamide]
298 to 299 °C | 5.1 to 10 µM | 20.1 to 30 µM | NC(=O)c1nc(-c2cccnc2)nc2c1ncn2-c1ccccc1 [Compound 35, 9-phenyl-2-(pyridin-3-yl)-9H-purine-6-carboxamide]
> 350 °C | > 30 µM |  | Cn1c(=O)[nH]c2c(C(N)=O)nc(-c3cccnc3)nc21 [Compound 7, 9-methyl-8-oxo-2-(pyridin-3-yl)-8,9-dihydro-7H-purine-6-carboxamide]
 | > 30 µM | 0.1 to 5 µM | NC(=O)c1nc(-c2cccc(O)c2)nc2c1[nH]c(=O)n2C1CCCCC1 [Compound 33, 9-cyclohexyl-2-(3-hydroxyphenyl)-8-oxo-8,9-dihydro-7H-purine-6-carboxamide]
298 to 304 °C | > 30 µM | 10.1 to 20 µM | NC(=O)c1nc(-c2ccncc2)nc2c1NC(=O)CN2c1ccccc1 [Compound 37, 6-oxo-8-phenyl-2-(pyridin-4-yl)-5,6,7,8-tetrahydropteridine-4-carboxamide]
386 to 388 °C | 20.1 to 30 µM | 0.1 to 5 µM | COc1ccc(-n2c(=O)[nH]c3c(C(N)=O)nc(-c4cccc(O)c4)nc32)cc1 [Compound 12, 2-(3-hydroxyphenyl)-9-(4-methoxyphenyl)-8-oxo-8,9-dihydro-7H-purine-6-carboxamide]
 | > 30 µM | 0.1 to 5 µM | NC(=O)c1nc(-c2cccc(O)c2)nc2c1[nH]c(=O)n2-c1ccccc1F [Compound 15, 9-(2-fluorophenyl)-2-(3-hydroxyphenyl)-8-oxo-8,9-dihydro-7H-purine-6-carboxamide]
279 to 281 °C | > 30 µM | > 30 µM | COc1ncccc1-c1nc(C(N)=O)c2[nH]c(=O)n(-c3ccccc3)c2n1 [Compound 5, 2-(2-methoxypyridin-3-yl)-8-oxo-9-phenyl-8,9-dihydro-7H-purine-6-carboxamide]
 | 10.1 to 20 µM | 0.1 to 5 µM | NC(=O)c1nc(-c2cccnc2)nc2c1[nH]c(=O)n2C1CCN(C(=O)OCc2ccccc2)CC1 [Compound 32, benzyl 4-(6-carbamoyl-8-oxo-2-(pyridin-3-yl)-7H-purin-9(8H)-yl)piperidine-1-carboxylate]
312 to 313 °C | > 30 µM | 5.1 to 10 µM | COc1ccccc1-n1c(=O)[nH]c2c(C(N)=O)nc(-c3cccc4[nH]ccc34)nc21 [Compound 10, 2-(1H-indol-4-yl)-9-(2-methoxyphenyl)-8-oxo-8,9-dihydro-7H-purine-6-carboxamide]
> 330 °C | > 30 µM | > 30 µM | CNC(=O)c1nc(-c2cccnc2)nc2c1[nH]c(=O)n2-c1ccccc1 [Compound 2, N-methyl-8-oxo-9-phenyl-2-(pyridin-3-yl)-8,9-dihydro-7H-purine-6-carboxamide]
360 to 364 °C | > 30 µM | 0.1 to 5 µM | NC(=O)c1nc(-c2cccc(O)c2)nc2c1[nH]c(=O)n2-c1ccccc1Cl [Compound 14, 9-(2-chlorophenyl)-2-(3-hydroxyphenyl)-8-oxo-8,9-dihydro-7H-purine-6-carboxamide]
366 to 367 °C | > 30 µM | 5.1 to 10 µM | Cc1ccccc1-n1c(=O)[nH]c2c(C(N)=O)nc(-c3cccc(O)c3)nc21 [Compound 9, 2-(3-hydroxyphenyl)-8-oxo-9-o-tolyl-8,9-dihydro-7H-purine-6-carboxamide]
294 to 296 °C | > 30 µM | > 30 µM | NC(=O)c1nc(-c2cccnc2)nc2c1NC(=O)CN2c1ccccc1 [Compound 36, 6-oxo-8-phenyl-2-(pyridin-3-yl)-5,6,7,8-tetrahydropteridine-4-carboxamide]
